{"source": "patent EP2018866A1", "about": "“Pharmaceutical compositions containing voriconazole” (SANDOZ AG, priority 2007, dated 2009)", "origin": "cited, not measured here", "note": "Where two headings read alike, the source gives them in different places."}
{"smiles": "C[C@@H](c1ncncc1F)[C@](O)(Cn1cncn1)c1ccc(F)cc1F", "note": "[Voriconazole, (2R,3S)-2-(2,4-Difluorophenyl)-3-(5-fluoro-4-pyrimidinyl)-1-(1H-1,2,4-triazol-1-yl)-butan-2-ol]", "values": [{"measurement": "aqueous solubility", "setting": "at a pH 3", "value": 0.2, "unit": "mg/mL"}, {"measurement": "aqueous solubility", "setting": "at a pH 7", "value": 0.61, "unit": "mg/mL"}]}
